Measured values published in PMC8011931, “Identification, Structure–Activity Relationship, and Biological Characterization of 2,3,4,5-Tetrahydro-1H-pyrido[4,3-b]indoles as a Novel Class of CFTR Potentiators” (Journal of Medicinal Chemistry, 2020).

Molecular target: F508del-CFTR (Homo sapiens, UniProt P13569, DEL508-508)
Experiment: HS-YFP-based assay for CFTR activity on F508del-CFTR FRT cells rescued at 32 °C for 24 h
Assay type: cell-based
Parameters: expressed in transfected cells; key to Emax: fold increase in F508del-CFTR rescue relative to hit 3 (normalized)
Conditions: for fold decrease (drop) in potency with respect to 30: EC50, F508del-CFTR FRT cells; for EC50: F508del-CFTR FRT cells rescued at 32 °C for 24 h, plus forskolin; for EC50 / Emax (FRT F508del-CFTR): mean ± SD (n = 3–6), n.a.: not active (up to 20 μM); for Emax: supplementary csv, same data as Tables 1–3; for Emax (FRT F508del-CFTR): normalized for the activity of analogue 3
Method: The chemical library was screened in duplicate on a Fischer rat thyroid (FRT) cell line, stably coexpressing F508del-CFTR and the halide-sensitive yellow fluorescent protein, HS-YFP.[23],[34],[35] To overcome the F508del trafficking defect, cells were initially incubated for 24 h at 32 °C and then acutely treated (15–30 min) with a single compound (5 μM) in combination with forskolin (10 μM). After stimulation, the F508del-CFTR activity in the plasma membrane was calculated by measuring the rate of fluorescence quenching arising from iodide influx.[34] This activity was compared to that of wells containing forskolin alone (negative control) or forskolin plus VX-770 (1 μM, as a positive control) (Figure 2A). Analysis of screening performance with the Z′ method gave a score of 0.6, which can be considered optimal for this type of assay. The activity scores for each compound were then plotted as an ordered distribution (Figure 2B). All compounds whose average activity calculated from the two rounds of screening was greater than 185% with respect to the negative control (i.e., forskolin alone) were considered as primary hits.
The primary hits were confirmed by testing them at different concentrations, in order to extrapolate the dose–response relationship. First, we focused on the F508del mutant. The compounds were tested in the low micromolar range, in the presence of forskolin (10 μM), on F508del-CFTR FRT cells following rescue of the trafficking defect by low-temperature incubation, as done for the primary screening. The most interesting hits were subsequently tested for their ability to overcome the more severe gating defect of pure class III mutant using FRT cells stably expressing G551D-CFTR (Figure 3B).
The role of the heteroaryl group (A) acylating the position 2 of the tetrahydro-γ-carboline was initially explored by modifying the substituent on the pyrazolyl residue and replacing the pyrazole with other rings, while keeping the 8-methoxy carboline moiety unmodified. The activity of each compound is described in terms of normalized maximal efficacy (Emax), the maximum fold increase in the rescue of F508del-CFTR activity with respect to hit 3, and potency (EC50), the concentration producing half-maximal efficacy.
FRT cells stably expressing mutant F508del-CFTR or G551D-CFTR and the halide-sensitive yellow fluorescent protein (HS-YFP) YFP-H148Q/I152L and CFBE41o-cells stably expressing F508del-CFTR and HS-YFP were generated as previously described.[21],[57] FRT cells were cultured using the Coon’s modification of Ham’s F12 medium, while CFBE41o-cells were cultured in the modified Eagle’s medium. Media were supplemented with 10% fetal calf serum, 2 mM L-glutamine, 100 U/mL of penicillin, and […] of streptomycin. For functional assays of CFTR activity based on the HS-YFP assays, CFBE41o- or FRT cells were plated (50,000 cells/well) on clear-bottom 96-well black microplates (Corning Life Sciences, Acton, MA). The following day, cells were assayed. In the case of FRT cells expressing F508del-CFTR, plates were kept at 32 °C (or treated with correctors at 37 °C where indicated) for an additional 24 h to rescue the mutant trafficking defect, before assays.
Prior assay, cells were washed with phosphate-buffered saline (PBS) containing (in mM) 137 NaCl, 2.7 KCl, 8.1 Na2HPO4, 1.5 KH2PO4, 1 CaCl2, and 0.5 MgCl2. Cells were then incubated for 25 min with 60 μL of PBS plus forskolin (20 μM) and test compounds (at the desired concentration) to stimulate mutant CFTR. Cells were then transferred to microplate readers (FluoStar Optima; BMG Labtech, Offenburg, Germany) for CFTR activity determination. The plate readers were equipped with high-quality excitation (HQ500/20X: 500 ± 10 nm) and emission (HQ535/30M: 535 ± 15 nm) filters for YFP (Chroma Technology). […]

F508del-CFTR, sequence (P13569 with tags, fused parts or gaps DEL508-508): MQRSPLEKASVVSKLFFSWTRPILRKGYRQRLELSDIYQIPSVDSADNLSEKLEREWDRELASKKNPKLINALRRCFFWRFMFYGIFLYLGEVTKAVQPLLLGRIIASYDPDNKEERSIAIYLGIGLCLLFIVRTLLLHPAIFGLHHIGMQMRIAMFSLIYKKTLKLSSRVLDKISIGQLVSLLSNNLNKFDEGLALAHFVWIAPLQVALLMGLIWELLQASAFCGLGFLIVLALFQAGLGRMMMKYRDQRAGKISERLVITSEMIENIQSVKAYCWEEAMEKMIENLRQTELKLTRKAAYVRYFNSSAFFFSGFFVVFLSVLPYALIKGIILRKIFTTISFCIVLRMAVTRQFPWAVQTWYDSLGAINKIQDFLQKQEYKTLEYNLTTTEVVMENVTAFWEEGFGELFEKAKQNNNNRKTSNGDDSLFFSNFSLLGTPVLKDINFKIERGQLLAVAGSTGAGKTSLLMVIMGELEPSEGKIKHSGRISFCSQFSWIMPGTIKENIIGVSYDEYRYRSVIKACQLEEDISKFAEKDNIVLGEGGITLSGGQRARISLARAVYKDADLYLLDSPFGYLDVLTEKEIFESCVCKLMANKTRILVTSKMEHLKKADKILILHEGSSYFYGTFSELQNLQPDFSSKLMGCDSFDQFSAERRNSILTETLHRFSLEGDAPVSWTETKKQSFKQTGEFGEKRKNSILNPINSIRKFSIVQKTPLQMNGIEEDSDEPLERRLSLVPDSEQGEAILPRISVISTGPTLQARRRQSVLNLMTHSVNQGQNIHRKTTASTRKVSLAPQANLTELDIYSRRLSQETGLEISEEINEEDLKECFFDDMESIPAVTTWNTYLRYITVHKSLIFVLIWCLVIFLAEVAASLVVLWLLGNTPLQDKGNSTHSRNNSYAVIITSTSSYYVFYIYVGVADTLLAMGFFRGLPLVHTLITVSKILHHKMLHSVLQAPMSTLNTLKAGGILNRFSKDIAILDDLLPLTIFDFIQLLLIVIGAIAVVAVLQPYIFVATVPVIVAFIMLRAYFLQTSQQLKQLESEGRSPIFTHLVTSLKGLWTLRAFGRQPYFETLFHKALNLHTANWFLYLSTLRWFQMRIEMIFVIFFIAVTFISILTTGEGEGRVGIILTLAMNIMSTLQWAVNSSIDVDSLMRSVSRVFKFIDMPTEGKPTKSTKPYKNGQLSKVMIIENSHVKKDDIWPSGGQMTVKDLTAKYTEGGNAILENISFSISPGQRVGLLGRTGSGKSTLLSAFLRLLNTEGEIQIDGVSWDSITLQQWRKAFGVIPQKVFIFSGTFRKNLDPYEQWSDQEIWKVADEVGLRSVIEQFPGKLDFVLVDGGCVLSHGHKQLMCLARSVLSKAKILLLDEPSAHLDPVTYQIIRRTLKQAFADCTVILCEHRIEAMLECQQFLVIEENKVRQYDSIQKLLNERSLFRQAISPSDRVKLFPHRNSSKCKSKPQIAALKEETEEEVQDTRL

fold decrease (drop) in potency with respect to 30	EC50 [µM]	Emax	Emax (FRT F508del-CFTR)	Structure (SMILES)	activity on F508del-CFTR FRT cells (in words)
38 fold	2.3 ± 0.3	0.93 ± 0.16		Cc1ccc(F)c2[nH]c3c(c12)CCN(C(=O)c1cc(C(F)(F)F)[nH]n1)CC3 [Compound 38, (7-Fluoro-10-methyl-1,4,5,6-tetrahydroazepino[4,5-b]indol-3(2H)-yl)-(5-(trifluoromethyl)-1H-pyrazol-3-yl)methanone]	
	0.23 ± 0.05	1.05 ± 0.17		O=C(c1cc(C(F)(F)F)[nH]n1)N1CCc2[nH]c3ccccc3c2C1 [Compound 13, (1,3,4,5-Tetrahydro-2H-pyrido[4,3-b]indol-2-yl)-(5-(trifluoromethyl)-1H-pyrazol-3-yl)methanone]	
	0.48 ± 0.12	0.83 ± 0.09		Cc1cccc2[nH]c3c(c12)CN(C(=O)c1cc(C(F)(F)F)[nH]n1)CC3 [Compound 15, (9-Methyl-1,3,4,5-tetrahydro-2H-pyrido[4,3-b]indol-2-yl)-(5-(trifluoromethyl)-1H-pyrazol-3-yl)methanone]	
more than 15 fold	0.94 ± 0.25	0.65 ± 0.08		Cc1ccc(F)c2c3c([nH]c12)CCN(C(=O)c1cc(C(F)(F)F)[nH]n1)C3 [Compound 31, (9-Fluoro-6-methyl-1,3,4,5-tetrahydro-2H-pyrido[4,3-b]indol-2-yl)(5-(trifluoromethyl)-1H-pyrazol-3-yl)methanone]	
	1.14 ± 0.13	1.0 ± 0.08		Cc1cccc2c3c([nH]c12)CCN(C(=O)c1cc(C(F)(F)F)[nH]n1)C3 [Compound 17, (6-Methyl-1,3,4,5-tetrahydro-2H-pyrido[4,3-b]indol-2-yl)-(5-(trifluoromethyl)-1H-pyrazol-3-yl)methanone]	
	0.23 ± 0.08	0.70 ± 0.02		Cc1cc(F)c2[nH]c3c(c2c1)CN(C(=O)c1cc(C(F)(F)F)[nH]n1)CC3 [Compound 26, (6-Fluoro-8-methyl-1,3,4,5-tetrahydro-2H-pyrido[4,3-b]indol-2-yl)-(5-(trifluoromethyl)-1H-pyrazol-3-yl)methanone]	
	1.9 ± 0.2	0.75 ± 0.11		N#Cc1ccc2[nH]c3c(c2c1)CN(C(=O)c1cc(C(F)(F)F)[nH]n1)CC3 [Compound 23, 2-(5-(Trifluoromethyl)-1H-pyrazole-3-carbonyl)-2,3,4,5-tetrahydro-1H-pyrido[4,3-b]indole-8-carbonitrile]	

Continued, compound first:

Structure (SMILES)	fold decrease (drop) in potency with respect to 30	EC50 [µM]	Emax	Emax (FRT F508del-CFTR)	activity on F508del-CFTR FRT cells (in words)
COc1ccc2[nH]c3c(c2c1)CN(C(=O)c1cc(-c2ccccc2)[nH]n1)CC3 [Compound 7, (8-Methoxy-1,3,4,5-tetrahydro-2H-pyrido[4,3-b]indol-2-yl)-(5-phenyl-1H-pyrazol-3-yl)methanone]		0.82 ± 0.17	0.84 ± 0.23	0.84 ± 0.23	
COc1ccc2c(c1)c1c(n2C)CCN(C(=O)c2cc(C(F)(F)F)[nH]n2)C1 [Compound 12, (8-Methoxy-5-methyl-1,3,4,5-tetrahydro-2H-pyrido[4,3-b]indol-2-yl)-(5-(trifluoromethyl)-1H-pyrazol-3-yl)methanone]		2.1 ± 0.7	0.85 ± 0.06	0.85 ± 0.06	
Cc1ccc(F)c2[nH]c3c(c12)CN(C(=O)c1cc(C(F)(F)F)[nH]n1)[C@@H](C)C3 [Compound 40, (S)-(6-Fluoro-3,9-dimethyl-1,3,4,5-tetrahydro-2H-pyrido[4,3-b]indol-2-yl)-(5-(trifluoromethyl)-1H-pyrazol-3-yl)methanone]		1.1 ± 0.2	1.31 ± 0.18	1.31 ± 0.18	
Cc1ccc(F)c2[nH]c3c(c12)C(C)N(C(=O)c1cc(C(F)(F)F)[nH]n1)CC3 (single isomer, unassigned) [Compound 42, (S)- or (R)-(6-Fluoro-1,9-dimethyl-1,3,4,5-tetrahydro-2H-pyrido[4,3-b]indol-2-yl)-(5-(trifluoromethyl)-1H-pyrazol-3-yl)methanone]		0.05 ± 0.01	0.9 ± 0.3		
COc1ccc2[nH]c3c(c2c1)CN(C(=O)c1ccc(Br)o1)CC3 [Compound 9, (8-Methoxy-1,3,4,5-tetrahydro-2H-pyrido[4,3-b]indol-2-yl)-(5-bromofuran-2-yl)methanone]		3.7 ± 1.1	0.94 ± 0.11		
COc1ccc2[nH]c3c(c2c1)CN(C(=O)c1cc(C)[nH]n1)CC3 [Compound 5, (8-Methoxy-1,3,4,5-tetrahydro-2H-pyrido[4,3-b]indol-2-yl)-(5-methyl-1H-pyrazol-3-yl)methanone]		60 ± 4	0.59 ± 0.11	0.59 ± 0.11	
Cc1ccc(F)c2[nH]c3c(c12)CN(C(=O)c1cc(C(F)(F)F)[nH]n1)C(C)C3 (racemic) [Compound 33, (±)-(6-Fluoro-3,9-dimethyl-1,3,4,5-tetrahydro-2H-pyrido[4,3-b]indol-2-yl)-(5-(trifluoromethyl)-1H-pyrazol-3-yl)methanone]		0.022 ± 0.011	0.95 ± 0.27		
Cc1ccc(F)c2[nH]c3c(c12)[C@H]1CC[C@@H](C3)N1C(=O)c1cc(C(F)(F)F)[nH]n1 (single isomer, unassigned) [Compound 36, (R)- or (S)-(4-Fluoro-1-methyl-5,6,7,8,9,10-hexahydro-7,10-epiminocyclohepta[b]indol-11-yl)(5-(trifluoromethyl)-1H-pyrazol-3-yl)methanone]					completely inactive
COc1ccc2[nH]c3c(c2c1)CN(C(=O)c1cc(C(C)C)[nH]n1)CC3 [Compound 6, (8-Methoxy-1,3,4,5-tetrahydro-2H-pyrido-(5-isopropyl-1H-pyrazol-3-yl)-[4,3-b]indol-2-yl)methanone]		5.7 ± 0.7	0.95 ± 0.08	0.95 ± 0.08	
Cc1ccc(F)c2[nH]c3c(c12)C(C)N(C(=O)c1cc(C(F)(F)F)[nH]n1)CC3 (single isomer, unassigned) [Compound 41, (R)- or (S)-(6-Fluoro-1,9-dimethyl-1,3,4,5-tetrahydro-2H-pyrido[4,3-b]indol-2-yl)-(5-(trifluoromethyl)-1H-pyrazol-3-yl)methanone]		0.08 ± 0.02	1.0 ± 0.22		
Cc1ccc(F)c2[nH]c3c(c12)C1CCC(C3)N1C(=O)c1cc(C(F)(F)F)[nH]n1 (single isomer, unassigned) [Compound 37, (S)- or (R)-(4-Fluoro-1-methyl-5,6,7,8,9,10-hexahydro-7,10-epiminocyclohepta[b]indol-11-yl)(5-(trifluoromethyl)-1H-pyrazol-3-yl)methanone]		0.54 ± 0.04	0.95 ± 0.01		retained some activity
COc1ccc2[nH]c3c(c2c1)CN(C(=O)c1cc(C(F)(F)F)n(C)n1)CC3 [Compound 11, (8-Methoxy-1,3,4,5-tetrahydro-2H-pyrido[4,3-b]indol-2-yl)-(1-methyl-5-(trifluoromethyl)-1H-pyrazol-3-yl)methanone]		7.1 ± 1.6	1.20 ± 0.08	1.20 ± 0.08	
Cc1ccc(F)c2[nH]c3c(c12)CN(C(=O)c1cc(C(F)(F)F)[nH]n1)C(C)(C)C3 [Compound 34, (6-Fluoro-3,3,9-trimethyl-1,3,4,5-tetrahydro-2H-pyrido[4,3-b]indol-2-yl)-(5-(trifluoromethyl)-1H-pyrazol-3-yl)methanone]		1.91 ± 0.26	0.79 ± 0.13	0.79 ± 0.13	
